# Entries after “also recorded” stand apart in the source; their conditions may differ. Like-named read-outs stand apart in the source and are kept apart here.
# Legend:
# [1] = cited from earlier work
# [2] = intravenous administration; cited from earlier work
# [3] = Third set of cases: spinal interventional procedures with fluoroscopic guidance, adverse reactions; type: in vivo, human
# Source text: In a third set of cases, two-hundred-and-thirty patients underwent spinal interventional procedures with fluoroscopic guidance. Two-hundred-and-eleven patients were subsequently evaluated for any adverse reaction in the period immediately after the procedure and up to several weeks after the procedure. Seventy-four of the patients were male and one-hundred-and-thirty-seven were female. The age range of the patient population varied from sixteen years old to eighty-one year old, and the average age of the patient population was 48.7 years old. The only prophylactic medications that were administered before the procedure were antibiotics for patients undergoing discography, patients with significant cardiac disease, or patients with surgical implants. The number and type of procedures along with the number of adverse reactions for each procedure type are summarized in below in Table 1: […]
# [4] = Second set of test cases: fluoroscopically guided spinal injections with gadolinium; type: in vivo, human
# Protocol: During the second of set of tests, gadolinium was injected into a variety of target portions of the spinal area to create a contrast between the target portion and surrounding tissue. As described below, these contrasts were adequately sensed using fluoroscopy to create visual representations of the contrast between the target portion and the surrounding tissue. The second set of tests utilized a preferred embodiment of the method of using gadolinium as a contrast substance, where a visualization was created to use as a guide for the accurate injection of a diagnostic or therapeutic substance into the target portion of the spinal area. In this respect, visualization of the contrast helps to localize placement of a needle for an injection of a substance avoiding the harm that the injection might cause to surrounding tissue.
# The second set of tests comprised chart review, performance of spinal injections with gadolinium under fluoroscopic guidance, and post procedure follow-up by phone at two and twelve weeks to assess any adverse reactions to the gadolinium. […] The tests utilized a contrast substance that was 469.01 mg/ml gadolinium (Magnevist—from Berlex Laboratories, Wayne, N.J.). […]
# [5] = First set of test cases: gadolinium lumbar discography with fluoroscopy and CT; type: in vivo, human; conditions: for visibility of contrast on computer axial tomography: approximately one-hundred-and-sixty minutes after injection, case 1-1
# Protocol: A first set of test cases was conducted wherein it was identified that gadolinium would adequately opacify, thereby allowing adequate fluoroscopic imaging for of soft tissue portions of the spinal area and, for example, for lumbar discography procedures. […] During the first set of test cases, a solution of 469.01 mg/ml gadolinium (Magnevist—Berlex Laboratories, Wayne, N.J.) with 25 mg/ml Cefazolin (Apothecon, Princeton, N.J.) for antibacterial prophylaxis was injected into each disc using a standard three milliliter syringe. The following is a brief synopsis of six tests from the first set of tests:
# The volume of contrast injected at pain onset, the end point (nucleography), the pain intensity measured with the numerical analog scale, and the concordant and/or discordant pain response were recorded for each spinal disc to be injected with gadolinium. Each spinal disc then was visualized with c-arm fluoroscopy to create a visualization of the nucleogram and provocation of the spinal discs.
# [6] = repeated exposure in sensitive individuals
smiles,measurement,setting,value
CC(=O)N(CC(O)CO)c1c(I)c(C(=O)NCC(O)CO)c(I)c(C(=O)NCC(O)CO)c1I (stereo not drawn) [iohexol],anaphylaxis occurrence,[1]; first dose administrations,one percent and two percent
same,anaphylaxis occurrence,[1]; [6],seventeen percent and thirty-five percent
"CNC[C@H](O)[C@@H](O)[C@H](O)[C@H](O)CO.CNC[C@H](O)[C@@H](O)[C@H](O)[C@H](O)CO.O=C([O-])CN(CCN(CC(=O)[O-])CC(=O)O)CCN(CC(=O)[O-])CC(=O)O.[Gd+3] [gadolinium, gadopentate dimeglumine]",adverse reaction rate,[2],0.06%
same,Number of Adverse Reactions,"[3]; Caudal epidural, 16 procedures",0
same,Number of Adverse Reactions,"[3]; Cervical SNRB, 14 procedures",1
same,Number of Adverse Reactions,"[3]; Cervical interlaminar, 6 procedures",1
same,Number of Adverse Reactions,"[3]; Lumbar SNRB, 55 procedures",4
same,Number of Adverse Reactions,"[3]; Lumbar discography, 11 procedures",0
same,Number of Adverse Reactions,"[3]; Lumbar epidurolysis, 4 procedures",0
same,Number of Adverse Reactions,"[3]; Lumbar interlaminar, 37 procedures",1
same,Number of Adverse Reactions,"[3]; Lumbar intraarticular facet, 3 procedures",0
same,Number of Adverse Reactions,"[3]; Lumbar sympathetic, 4 procedures",0
same,Number of Adverse Reactions,"[3]; Other miscellaneous, 13 procedures",1
same,Number of Adverse Reactions,"[3]; Sacroiliac joint, 59 procedures",2
same,quality of visualizations from gadolinium-induced contrasts,"[3]; all procedures, fluoroscopic devices",adequate visualizations
same,serious adverse reactions,"[3]; of the five allergic-type reactions, likely due to contributing factors",one
same,adverse reactions attributable to allergic-type reactions,[3]; out of the ten adverse reactions,five
same,"side effects, complications or adverse reactions","[4]; 469.01 mg/ml gadolinium (Magnevist), follow-up at two and twelve weeks",no side effects or complications; also recorded: None of the individuals in the case series of the present invention had any adverse reactions
same,visibility under fluoroscopy,[4]; soft tissue of the spinal area,visible under fluoroscopy
same,visibility in disc material on fluoroscopic image,[5]; after injection into spinal discs,fluoroscopically visible; also recorded: clearly visible
same,visibility of contrast on computer axial tomography,[5]; L3-L4 spinal disc,visible
same,visibility of contrast on computer axial tomography,[5]; L4-L5 disrupted spinal disc,"less intensive, but still visible"
same,complications during or after the procedure,"[5]; intradiscal, 469.01 mg/ml gadolinium with 25 mg/ml Cefazolin, single patient cases",No complications
same,visibility on CT scan,"[5]; more than one-hundred-and-twenty minutes after injection, discs with and without annular disruption",still visible
same,visibility on computer axial tomography,"[5]; thirty minutes after completion of the procedure, case 1-2",showed gadolinium in each disc
C[C@H](O)C(=O)Nc1c(I)c(C(=O)NC(CO)CO)c(I)c(C(=O)NC(CO)CO)c1I [iopamidol],anaphylaxis occurrence,[1]; first dose administrations,one percent and two percent
same,anaphylaxis occurrence,[1]; [6],seventeen percent and thirty-five percent
